Results reported in patent US12186402B2, “Polymer materials for delivery of short-chain fatty acids to the intestine for applications in human health and treatment of disease” (The University of Chicago, priority 2017, dated 2025).

Test system: allergy to peanuts induced in mice
Assay: Induced peanut allergy model: challenge with peanut protein; core body temperature, peanut-specific IgE, IgG1, mMCP-1
Type: in vivo, mouse

CCCC(=O)[O-].[Na+] [sodium butyrate]
physiological markers and symptoms of an allergic reaction (Example 8: allergic mice, 2.83 mg per g body weight daily by oral gavage, FIG. 17): not effective | core body temperature over time after challenge with peanut protein (protection) (FIG. 19, allergic mice, daily oral treatment): no protection
